Test results from US20240247080A1, “GLP1/GIP/NPY2 RECEPTOR TRIPLE AGONISTS” (Boehringer Ingelheim International GmbH, priority 2022, published 2024).
Where two headings read alike, the source gives them in different places. Starred links: 1 amine or outer side, 2 acyl side, 3 side chain; linkers in the order of their positions; H or OH if unused. Non-standard residues stand in square brackets, D forms with d. Groups on a side chain read outwards from the residue. *: point of attachment. C20 diacid = O=C(O)CCCCCCCCCCCCCCCCCCC(=O)*; C18 diacid = O=C(O)CCCCCCCCCCCCCCCCC(=O)*; γGlu = O=C(O)[C@H](CCC(=O)[*:2])N[*:1]; εLys = N[C@@H](CCCCN[*:1])C(=O)[*:2]; AEEA = NCCOCCOCC(=O)O; Aib = CC(C)(N)C(=O)O

What was measured:
Assay type in all cases: cell-based
Details in all cases: CreLuc reporter gene assay
hGIPR = biological target: T1, hGIPR (Homo sapiens, UniProt P48546); test: hGIPR CreLuc reporter gene assay in 0.5% and 100% plasma
T1 construct: expressed in transfected cells; host or cells: CHO cells carrying a CRE-luciferase reporter gene
T1 sequence (P48546 22-466): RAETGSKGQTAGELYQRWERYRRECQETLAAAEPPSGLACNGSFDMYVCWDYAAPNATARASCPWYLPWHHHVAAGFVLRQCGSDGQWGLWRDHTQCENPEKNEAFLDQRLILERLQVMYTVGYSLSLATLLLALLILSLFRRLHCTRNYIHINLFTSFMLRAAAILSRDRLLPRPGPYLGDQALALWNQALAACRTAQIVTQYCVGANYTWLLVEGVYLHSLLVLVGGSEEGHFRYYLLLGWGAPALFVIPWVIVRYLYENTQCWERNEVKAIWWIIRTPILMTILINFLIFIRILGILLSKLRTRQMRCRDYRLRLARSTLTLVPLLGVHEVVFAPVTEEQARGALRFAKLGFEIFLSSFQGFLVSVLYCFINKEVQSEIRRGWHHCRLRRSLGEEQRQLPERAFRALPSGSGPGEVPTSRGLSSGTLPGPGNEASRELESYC
Procedure, shortened: (§1)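 HEK cells (GLP-1R, NPY2R) or CHO cells (GIPR) carrying a CRE-luciferase reporter, incubated 4 h at 37 °C with peptides in HBSS/20 mM HEPES pH 7.4 plus 0.5% human plasma, or in 100% plasma. Luminescence read; EC50 from 8-point variable-slope sigmoid fits.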

hNPY2R = biological target: T2, hNPY2R (Homo sapiens, UniProt P49146); test: hNPY2R CreLuc reporter gene assay in 0.5% and 100% plasma
T2 construct: expressed in transfected cells; host or cells: HEK-293 cells carrying a CRE-luciferase reporter gene
T2 sequence (P49146 1-381): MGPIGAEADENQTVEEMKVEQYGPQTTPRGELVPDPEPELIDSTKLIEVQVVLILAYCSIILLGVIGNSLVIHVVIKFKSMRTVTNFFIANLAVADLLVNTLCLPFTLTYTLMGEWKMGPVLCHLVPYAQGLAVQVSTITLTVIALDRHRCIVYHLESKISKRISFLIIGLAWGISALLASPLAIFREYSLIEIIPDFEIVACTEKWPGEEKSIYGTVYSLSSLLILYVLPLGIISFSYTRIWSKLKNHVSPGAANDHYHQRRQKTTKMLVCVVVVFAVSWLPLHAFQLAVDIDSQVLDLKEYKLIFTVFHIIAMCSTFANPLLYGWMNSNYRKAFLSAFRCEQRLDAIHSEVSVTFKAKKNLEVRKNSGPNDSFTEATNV
Procedure, shortened: as §1

hGLP1R = biological target: T3, hGLP1R (Homo sapiens, UniProt P43220); test: hGLP1R CreLuc reporter gene assay in 0.5% and 100% plasma
T3 construct: expressed in transfected cells; host or cells: HEK-293 cells carrying a CRE-luciferase reporter gene
T3 sequence (P43220 24-463): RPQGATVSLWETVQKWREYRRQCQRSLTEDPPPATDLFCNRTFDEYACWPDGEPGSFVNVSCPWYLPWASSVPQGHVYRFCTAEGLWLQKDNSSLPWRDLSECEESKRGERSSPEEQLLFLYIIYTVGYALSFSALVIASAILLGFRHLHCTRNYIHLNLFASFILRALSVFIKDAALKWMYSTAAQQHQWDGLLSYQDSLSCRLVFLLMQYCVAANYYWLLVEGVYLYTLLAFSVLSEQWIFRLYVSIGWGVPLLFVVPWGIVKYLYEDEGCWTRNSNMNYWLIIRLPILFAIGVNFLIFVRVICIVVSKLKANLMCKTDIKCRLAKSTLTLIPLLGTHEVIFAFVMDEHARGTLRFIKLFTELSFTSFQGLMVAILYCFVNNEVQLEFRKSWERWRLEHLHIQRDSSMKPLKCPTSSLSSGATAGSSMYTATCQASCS
Procedure, shortened: as §1

[1] = 0.5% human plasma, read-out: hGIPR 0.5% hP
[2] = 100% human plasma, read-out: hGIPR 100% hP
[3] = 0.5% human plasma, read-out: hNPY2R 0.5% hP
[4] = 100% human plasma, read-out: hNPY2R 100% hP
[5] = 0.5% human plasma, read-out: hGLP1R 0.5% hP
[6] = 100% human plasma, read-out: hGLP1R 100% hP

Substance	EC50 (hGIPR; [1]) [nM]	EC50 (hGIPR; [2]) [nM]	EC50 (hNPY2R; [3]) [nM]	EC50 (hNPY2R; [4]) [nM]	EC50 (hGLP1R; [5]) [nM]	EC50 (hGLP1R; [6]) [nM]
H-Y[Aib]EGTFTSDYSI[Aib]LEKQAQ[Aib]AFVQWLIK([AEEA-AEEA-γGlu-γGlu-γGlu-γGlu-C18 diacid])GGPSEPASLRHYYNWLTRQRY-NH2 [Compound 173, Y-Aib-E-G-T-F-T-S-D-Y-S-I-Aib-L-E-K-Q-A-Q-Aib-A-F-V-Q-W-L-I-K(1,3)-GGPSEPASLRHYYNWLTRQRY-NH2.C18DA-gGlu-gGlu-gGlu-gGlu-OEG-OEG(1,2)]	0.27	0.94	12.4	24.9	0.11	3.07
H-Y[Aib]EGTFTSDYSI[Aib]LEKQAQ[Aib]AFVEWLIK([γGlu-γGlu-γGlu-γGlu-C18 diacid])GGPEEGASLRHYYNWLTRQRY-NH2 [Compound 272, Y-Aib-E-G-T-F-T-S-D-Y-S-I-Aib-L-E-K-Q-A-Q-Aib-A-F-V-E-W-L-I-K(1,3)-GGPEEGASLRHYYNWLTRQRY-NH2.C18DA-gGlu-gGlu-gGlu-gGlu(1,2)]	0.24	3.01	23.8		0.31	
H-Y[Aib]EGTFTSDYSI[Aib]LEKQAQ[Aib]AFVEWLIK([εLys-γGlu-γGlu-γGlu-γGlu-γGlu-γGlu-C20 diacid])GGPSSGASLR[Aib]YYNWLTRQRY-NH2 [Compound 182, Y-Aib-E-G-T-F-T-S-D-Y-S-I-Aib-L-E-K-Q-A-Q-Aib-A-F-V-E-W-L-I-K(1,3)-G-G-P-S-S-G-A-S-L-R-Aib-Y-Y-N-W-L-T-R-Q-R-Y-NH2.C20DA-gGlu-gGlu-gGlu-gGlu-gGlu-gGlu-eLys(1,2)]	0.21	1.39	70.4		0.13	
H-Y[Aib]EGTFTSDYSI[Aib]LEKQAQ[Aib]AFVEWLIK([εLys-γGlu-γGlu-γGlu-γGlu-γGlu-γGlu-γGlu-C20 diacid])GGPSEGASLRHYYNWLTRQRY-NH2 [Compound 288, Y-Aib-E-G-T-F-T-S-D-Y-S-I-Aib-L-E-K-Q-A-Q-Aib-A-F-V-E-W-L-I-K(1,3)-GGPSEGASLRHYYNWLTRQRY-NH2.C20DA-gGlu-gGlu-gGlu-gGlu-gGlu-gGlu-gGlu-eLys(1,2)]	0.51	2.43	14.3	36.8	0.17	
H-Y[Aib]EGTFTSDYSI[Aib]LEKQAQ[Aib]AFIEWLIK([AEEA-AEEA-γGlu-γGlu-γGlu-γGlu-C20 diacid])GGPSEGASLRHYYNWLTRQRY-NH2 [Compound 231, Y-Aib-E-G-T-F-T-S-D-Y-S-I-Aib-L-E-K-Q-A-Q-Aib-A-F-I-E-W-L-I-K(1,3)-GGPSEGASLRHYYNWLTRQRY-NH2.C20DA-gGlu-gGlu-gGlu-gGlu-OEG-OEG(1,2)]	0.33	1.43	19.2		0.14	
H-Y[Aib]EGTFTSDYSI[Aib]LEKQAQ[Aib]AFVQWLIK([εLys-γGlu-γGlu-γGlu-γGlu-γGlu-γGlu-C18 diacid])GGPEEGASLRHYYNWLTRQRY-NH2 [Compound 149, Y-Aib-E-G-T-F-T-S-D-Y-S-I-Aib-L-E-K-Q-A-Q-Aib-A-F-V-Q-W-L-I-K(1,3)-GGPEEGASLRHYYNWLTRQRY-NH2.C18DA-gGlu-gGlu-gGlu-gGlu-gGlu-gGlu-eLys(1,2)]	0.58	0.79	18.6		0.15	4.76
H-Y[Aib]EGTFTSDYSI[Aib]LEKQAQ[Aib]AFVEWLIK([εLys-γGlu-γGlu-γGlu-γGlu-γGlu-γGlu-C20 diacid])GGPSSGQS[Aib]RHYYNWLTRQRY-NH2 [Compound 44, Y-Aib-E-G-T-F-T-S-D-Y-S-I-Aib-L-E-K-Q-A-Q-Aib-A-F-V-E-W-L-I-K(1,3)-G-G-P-S-S-G-Q-S-Aib-R-H-Y-Y-N-W-L-T-R-Q-R-Y-NH2.C20DA-gGlu-gGlu-gGlu-gGlu-gGlu-gGlu-eLys(1,2)]	0.05	1.14		24.5	0.07	2.12
H-Y[Aib]EGTFTSDYSI[Aib]LEKQAQ[Aib]AFVQWLIK([AEEA-AEEA-Glu-Glu-Glu-C18 diacid])GGPEEGASLRHYYNWLTRQRY-NH2 [Compound 188, Y-Aib-E-G-T-F-T-S-D-Y-S-I-Aib-L-E-K-Q-A-Q-Aib-A-F-V-Q-W-L-I-K(1,3)-GGPEEGASLRHYYNWLTRQRY-NH2.C18DA-E-E-E-OEG-OEG(1,2)]	0.12		16.9		0.15	
H-Y[Aib]EGTFTSDYSI[Aib]LEKQAQ[Aib]AFVQWLIK([AEEA-AEEA-γGlu-γGlu-γGlu-C18 diacid])GGPEEGASLRHYYNWLTRQRY-NH2 [Compound 144, Y-Aib-E-G-T-F-T-S-D-Y-S-I-Aib-L-E-K-Q-A-Q-Aib-A-F-V-Q-W-L-I-K(1,3)-GGPEEGASLRHYYNWLTRQRY-NH2.C18DA-gGlu-gGlu-gGlu-OEG-OEG(1,2)]	1.15	0.79	15.8	48.7	0.16	
H-Y[Aib]EGTFTSDYSI[Aib]LEKQAQ[Aib]AFVQWLIK([γGlu-γGlu-γGlu-γGlu-γGlu-γGlu-C18 diacid])GGPSEGASLRHYYNWLTRQRY-NH2 [Compound 252, Y-Aib-E-G-T-F-T-S-D-Y-S-I-Aib-L-E-K-Q-A-Q-Aib-A-F-V-Q-W-L-I-K(1,3)-GGPSEGASLRHYYNWLTRQRY-NH2.C18DA-gGlu-gGlu-gGlu-gGlu-gGlu-gGlu(1,2)]	0.29	1.25		33.5	0.1	2.59
H-Y[Aib]EGTFTSDYSI[Aib]LEKQAQ[Aib]AFVEWLIK([γGlu-γGlu-γGlu-γGlu-γGlu-γGlu-C20 diacid])GGPSEGASLRHYYNWLTRQRY-NH2 [Compound 305, Y-Aib-E-G-T-F-T-S-D-Y-S-I-Aib-L-E-K-Q-A-Q-Aib-A-F-V-E-W-L-I-K(1,3)-GGPSEGASLRHYYNWLTRQRY-NH2.C20DA-gGlu-gGlu-gGlu-gGlu-gGlu-gGlu(1,2)]	0.65	2.81	18.3		0.29	
H-Y[Aib]EGTFTSDYSI[Aib]LEGQAQ[Aib]AFVEWLIK([εLys-γGlu-γGlu-γGlu-γGlu-γGlu-γGlu-C20 diacid])GGPSSGASLRHYYNWLTRQRY-NH2 [Compound 99, Y-Aib-E-G-T-F-T-S-D-Y-S-I-Aib-L-E-G-Q-A-Q-Aib-A-F-V-E-W-L-I-K(1,3)-GGPSSGASLRHYYNWLTRQRY-NH2.C20DA-gGlu-gGlu-gGlu-gGlu-gGlu-gGlu-eLys(1,2)]	0.91		16.8		0.41	
H-Y[Aib]EGTFTSDYSI[Aib]LEEEAQ[Aib]AFVQWLIK([εLys-εLys-γGlu-γGlu-γGlu-γGlu-γGlu-C20 diacid])GGPSSGASLRHYYNWLTRQRY-NH2 [Compound 7, Y-Aib-E-G-T-F-T-S-D-Y-S-I-Aib-L-E-E-E-A-Q-Aib-A-F-V-Q-W-L-I-K(1,3)-GGPSSGASLRHYYNWLTRQRY-NH2.C20DA-gGlu-gGlu-gGlu-gGlu-gGlu-eLys-eLys(1,2)]	0.23	0.63	16.9		0.13	
H-Y[Aib]EGTFTSDYSI[Aib]LEKQAQ[Aib]AFVEWLIK([AEEA-AEEA-γGlu-γGlu-γGlu-γGlu-γGlu-C20 diacid])GGPSSGASLRHYYNWLTRQRY-NH2 [Compound 229, Y-Aib-E-G-T-F-T-S-D-Y-S-I-Aib-L-E-K-Q-A-Q-Aib-A-F-V-E-W-L-I-K(1,3)-GGPSSGASLRHYYNWLTRQRY-NH2.C20DA-gGlu-gGlu-gGlu-gGlu-gGlu-OEG-OEG(1,2)]	0.22	1.42	10.8	27.2	0.1	
H-Y[Aib]EGTFTSDYSI[Aib]LEKQAQ[Aib]AFVQWLIK([εLys-γGlu-γGlu-γGlu-γGlu-γGlu-C20 diacid])GGPSEYASLRHYYNWLTRQRY-NH2 [Compound 189, Y-Aib-E-G-T-F-T-S-D-Y-S-I-Aib-L-E-K-Q-A-Q-Aib-A-F-V-Q-W-L-I-K(1,3)-GGPSEYASLRHYYNWLTRQRY-NH2.C20DA-gGlu-gGlu-gGlu-gGlu-gGlu-eLys(1,2)]	0.31		8.03	45.8	0.21	10.2
